Laboratory results published in US9695155B2, “Herbicidal substituted pyrimidinyloxy benzene compounds” (E. I. DU PONT DE NEMOURS AND COMPANY, priority 2013, dated 2017).

What was measured:
giant foxtail [1] = test: Test A preemergence; assay type: in vivo, Setaria faberii; details: Setaria faberi, pre-emergence, 240 h, 0 to 100 scale where 0 is no effect and 100 is complete control
In short: (§1)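 Injury scores run from 0, no effect, to 100, complete control, judged by eye against untreated plants roughly 10 days after treatment. Chemicals carried a surfactant in a non-phytotoxic solvent and went onto loam–sand soil preemergence or onto one- to two-leaf seedlings postemergence.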

pigweed [2] = test: Test A preemergence; assay type: in vivo, Amaranthus retroflexus; details: Amaranthus retroflexus, pre-emergence, 0 to 100 scale where 0 is no effect and 100 is complete control
In short: as §1

rice = test: Test B flooded paddy test; assay type: in vivo, Oryza sativa; details: Oryza sativa; Flood, 250 g ai/ha; 0 to 100 scale where 0 is no effect and 100 is complete control; read-out: Plant response rating, Rice
In short: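 Greenhouse flooded-pot test: compounds dosed into 3 cm standing water over 2-leaf plants, flood held constant. Rated visually after 13–15 days on 0–100 (complete control = 100); a dash marks no test result.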

giant foxtail [3] = test: Test C preemergence; assay type: in vivo, Setaria faberii; details: Setaria faberi, pre-emergence
In short: (§2)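 Sown in loam/sand → sprayed pre-emergence; or grown to 1–4 leaves in peat mix → sprayed post-emergence. Same solvent/surfactant formulation both ways. Greenhouse 13–15 d. Score 0–100 visual.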

yellow nutsedge [4] = test: Test C preemergence; assay type: in vivo, Cyperus esculentus; details: Cyperus, pre-emergence, preemergence, read-out: Nutsedge, Yellow plant response rating
In short: as §2

pigweed [5] = test: Test C preemergence; assay type: in vivo, Amaranthus retroflexus; details: Amaranthus retroflexus, pre-emergence, preemergence, read-out: Pigweed plant response rating
In short: as §2

barnyardgrass [6] = test: Test C preemergence; assay type: in vivo, Echinochloa crus-galli; details: Echinochloa crus-galli, pre-emergence
In short: as §2

Italian ryegrass = test: Test C postemergence; assay type: in vivo, Lolium multiflorum; details: Lolium multiflorum, post-emergence
In short: as §2

wheat, winter = test: Test C postemergence; assay type: in vivo, Triticum aestivum; details: Triticum aestivum, post-emergence
In short: as §2

galium = test: Test C postemergence; assay type: in vivo, Galium aparine; details: Galium, post-emergence
In short: as §2

corn = test: Test C postemergence; assay type: in vivo, Zea mays; details: Zea mays, post-emergence
In short: as §2

yellow nutsedge [7] = test: Test C postemergence; assay type: in vivo, Cyperus esculentus; details: Cyperus, post-emergence
In short: as §2

barnyardgrass [8] = test: Test C postemergence; assay type: in vivo, Echinochloa crus-galli; details: Echinochloa crus-galli, post-emergence
In short: as §2

kochia = test: Test C postemergence; assay type: in vivo, Kochia scoparia; details: Bassia scoparia, post-emergence
In short: as §2

[9] = 16 g ai/ha, scale 0 to 100 (0 no effect, 100 complete control)
[10] = 62 g ai/ha, scale 0 (no effect) to 100 (complete control)
[11] = 125 g ai/ha, scale 0 (no effect) to 100 (complete control)

Work on `FC(F)(F)COc1cnn(-c2ccccc2Oc2ncc(Cl)cn2)c1` [Compound 138, 5-chloro-2-[2-[4-(2,2,2-trifluoroethoxy)-1H-pyrazol-1-yl]phenoxy]pyrimidine] yielded a pest or weed control at 125 g/ha (giant foxtail [1]; 125 g ai/ha, read-out: Plant response rating, Foxtail, Giant) of 90%, a pest or weed control at 500 g/ha (giant foxtail [1]; 500 g ai/ha, read-out: Foxtail, Giant plant response rating) of 100% and a pest or weed control at 125 g/ha (pigweed [2]; 125 g ai/ha, read-out: Plant response rating, Pigweed) of 90%. For the same molecule, the pest or weed control at 500 g/ha (pigweed [2]; 240 h, 500 g ai/ha, read-out: Pigweed plant response rating) was 100%, the plant injury at 250 g/ha (rice) was 0% and the pest or weed control at 16 g/ha (giant foxtail [3]; 16 g ai/ha, preemergence, scale 0 to 100 (0 no effect, 100 complete control), read-out: Foxtail, Giant plant response rating) was 30%. It also gave a pest or weed control at 62 g/ha (giant foxtail [3]; 62 g ai/ha, preemergence, scale 0 (no effect) to 100 (complete control), read-out: Foxtail, Giant plant response rating) of 100%, a pest or weed control at 125 g/ha (giant foxtail [3]; 125 g ai/ha, preemergence, scale 0 (no effect) to 100 (complete control), read-out: Foxtail, Giant plant response rating) of 100% and a pest or weed control at 31 g/ha (giant foxtail [3]; Preemergence, 31 g ai/ha, scale 0 to 100, 0 no effect, 100 complete control, read-out: Plant response rating, Foxtail, Giant) of 90%. It also gave a pest or weed control at 16 g/ha (yellow nutsedge [4]; [9]) of 5%, a pest or weed control at 62 g/ha (yellow nutsedge [4]; [10]) of 25% and a pest or weed control at 125 g/ha (yellow nutsedge [4]; [11]) of 55%. It also gave a pest or weed control at 16 g/ha (pigweed [5]; [9]) of 85%, a pest or weed control at 62 g/ha (pigweed [5]; [10]) of 100% and a pest or weed control at 125 g/ha (pigweed [5]; [11]) of 100%. The pest or weed control at 16 g/ha (barnyardgrass [6]; 16 g ai/ha, preemergence, scale 0 to 100 (0 no effect, 100 complete control), read-out: Barnyardgrass plant response rating) was 10%, the pest or weed control at 62 g/ha (barnyardgrass [6]; 62 g ai/ha, preemergence, scale 0 (no effect) to 100 (complete control), read-out: Barnyardgrass plant response rating) was 65% and the pest or weed control at 125 g/ha (barnyardgrass [6]; 125 g ai/ha, preemergence, scale 0 (no effect) to 100 (complete control), read-out: Barnyardgrass plant response rating) was 95%. For the same molecule, the pest or weed control at 31 g/ha (barnyardgrass [6]; Preemergence, 31 g ai/ha, scale 0 to 100, 0 no effect, 100 complete control, read-out: Plant response rating, Barnyardgrass) was 25%, the pest or weed control at 16 g/ha (Italian ryegrass; 16 g ai/ha, postemergence, 0 is no effect, 100 is complete control, read-out: Plant response rating (0 to 100), Ryegrass, Italian) was 0% and the pest or weed control at 125 g/ha (Italian ryegrass; 125 g ai/ha, postemergence, visual rating, scale 0 to 100 (0 no effect, 100 complete control), read-out: Plant response rating, Ryegrass, Italian) was 5%. It also gave a pest or weed control at 62 g/ha (Italian ryegrass; Postemergence, 62 g ai/ha, scale 0 to 100 (0 no effect, 100 complete control), read-out: Plant response rating, Ryegrass, Italian) of 0%, a plant injury at 16 g/ha (wheat, winter; 16 g ai/ha, postemergence, 0 is no effect, 100 is complete control, read-out: Plant response rating (0 to 100), Wheat) of 0% and a plant injury at 125 g/ha (wheat, winter; 125 g ai/ha, postemergence, visual rating, scale 0 to 100 (0 no effect, 100 complete control), read-out: Plant response rating, Wheat) of 5%. The plant injury at 62 g/ha (wheat, winter; Postemergence, 62 g ai/ha, scale 0 to 100 (0 no effect, 100 complete control), read-out: Plant response rating, Wheat) was 0%, the pest or weed control at 16 g/ha (galium; 16 g ai/ha, postemergence, 0 is no effect, 100 is complete control, read-out: Plant response rating (0 to 100), Galium) was 50% and the pest or weed control at 125 g/ha (galium; 125 g ai/ha, postemergence, visual rating, scale 0 to 100 (0 no effect, 100 complete control), read-out: Plant response rating, Galium) was 85%. For the same molecule, the pest or weed control at 62 g/ha (galium; Postemergence, 62 g ai/ha, scale 0 to 100 (0 no effect, 100 complete control), read-out: Plant response rating, Galium) was 65%, the plant injury at 16 g/ha (corn; 16 g ai/ha, postemergence, 0 is no effect, 100 is complete control, read-out: Plant response rating (0 to 100), Corn) was 5% and the Corn plant response rating (crop injury, 0 = no effect, 100 = complete kill) at 125 g/ha (corn; 125 g ai/ha, postemergence, visual rating, scale 0 to 100 (0 no effect, 100 complete control)) was 10%. For the same molecule, the Corn plant response rating (crop injury, 0 = no effect, 100 = complete kill) at 62 g/ha (corn; Postemergence, 62 g ai/ha, scale 0 to 100 (0 no effect, 100 complete control)) was 5%, the pest or weed control at 16 g/ha (yellow nutsedge [7]; 16 g ai/ha, postemergence, 0 is no effect, 100 is complete control, read-out: Plant response rating (0 to 100), Nutsedge, Yellow) was 0% and the pest or weed control at 125 g/ha (yellow nutsedge [7]; 125 g ai/ha, postemergence, visual rating, scale 0 to 100 (0 no effect, 100 complete control), read-out: Plant response rating, Nutsedge, Yellow) was 10%. The pest or weed control at 62 g/ha (yellow nutsedge [7]; Postemergence, 62 g ai/ha, scale 0 to 100 (0 no effect, 100 complete control), read-out: Plant response rating, Nutsedge, Yellow) was 5%, the pest or weed control at 16 g/ha (barnyardgrass [8]; 16 g ai/ha, postemergence, 0 is no effect, 100 is complete control, read-out: Plant response rating (0 to 100), Barnyardgrass) was 5% and the pest or weed control at 125 g/ha (barnyardgrass [8]; 125 g ai/ha, postemergence, visual rating, scale 0 to 100 (0 no effect, 100 complete control), read-out: Plant response rating, Barnyardgrass) was 5%. The pest or weed control at 31 g/ha (barnyardgrass [8]; Postemergence, 31 g ai/ha, scale 0 to 100 (0 no effect, 100 complete control), 13 to 15 days, read-out: Plant response rating, Barnyardgrass) was 5%, the pest or weed control at 62 g/ha (barnyardgrass [8]; Postemergence, 62 g ai/ha, scale 0 to 100 (0 no effect, 100 complete control), read-out: Plant response rating, Barnyardgrass) was 5% and the pest or weed control at 16 g/ha (kochia; 16 g ai/ha, postemergence, 0 is no effect, 100 is complete control, read-out: Plant response rating (0 to 100), Kochia) was 80%. For the same molecule, the pest or weed control at 125 g/ha (kochia; 125 g ai/ha, postemergence, visual rating, scale 0 to 100 (0 no effect, 100 complete control), read-out: Plant response rating, Kochia) was 95% and the pest or weed control at 62 g/ha (kochia; Postemergence, 62 g ai/ha, scale 0 to 100 (0 no effect, 100 complete control), read-out: Plant response rating, Kochia) was 95%.
